Test results reported in patent US20250381269A1, “BISPECIFIC ANTIBODY BINDING EGFR AND B7-H3” (FORTVITA BIOLOGICS (SINGAPORE) PTE. LTD., priority 2022, published 2025).
Like-named read-outs stand apart in the source and are kept apart here.

Columns and labels:
H358 [1] = test: ADCC report assay, H358; format: cell-based; conditions: EGFR WT, KRAS G12C, effector/target 10:1, 20 h
Procedure: (§1) In the ADCC report assay, ADCC effector cells ((Promega, G7102)) are engineered cells in which FcRIIIa (V158) receptor is overexpressed into Jurkat T cells, which rapidly respond to ADCC through the NFAT-RE driving element within the Jurkat T cells.
(§2) • (1) Tumor cells (cell lines listed in Table 3) and ADCC effector cells (Promega, G7102) were mixed well (1.5E4 cells: 1.5E5 cells/well/100 μL (1.5E5: 1.5E6 cells/mL)) according to an effector/target ratio (10:1), and added to a 96-well white plate (NUNC, 136101). • (2) The antibody molecules prepared in advance by dilution were added to the corresponding cell well plates, mixed well, and cultured at 37° C. with 5% CO2 for 20 h. • (3) The Bio-glo reagent (Promega, G755B) prepared in advance was added to the cell well plate, the plate was left to stand at room temperature for 10-15 min in the dark, and then the cells were detected by a multimode microplate reader (Molecular Devices, Spectra MAXi3).

H1650 [2] = test: Proliferation inhibition experiment, H1650 (NSCLC); format: cell-based; conditions: EGFR Amplification Del19, KRAS WT
Procedure: (§3) • (1) NSCLC: plated at 1500-2500 cells/100 μL in a 96-well low-adsorption plate (Corning, CLS7007-24EA) for 3D cell culture, in which the following cell lines and specific amounts were used: • NSCLC: 2000 cells/100 μL/well • NCI-H292: Cell Bank of the Chinese Academy of Sciences, SCSP-582 • NCI-H322: Cobioer, CBP60134 • NCI-H1650: ATCC, CRL-5883 • NCI-H1975: ATCC, CRL-5908 • SK-MES-1: CoBioer, CBP60152 • NCI-H1703: ATCC, HTB-43 • PC9+hB7H3: constructed as described above • CRC and HNSCC: plated at 1500-2000 cells/100 μL in a 96-well white-bottom plate (NUNC, 136101) for 2D cell culture, in which the following cell lines and specific amounts were used: • CRC: 1500 cells/100 μL/well • CCK-81: CoBioer, CBP60581 • HT-55: CoBioer, CBP60012 • H508: CoBioer, CBP60795 • LS180: CoBioer, CBP60034 • HNSCC: 1500 cells/100 μL/well • TE-1: CoBioer, CBP60655 • Colo680: CoBioer, CBP60452. (2) The antibody molecules prepared in advance by dilution were added to the corresponding cell well plate, mixed well, and cultured in an incubator at 37° C. with 5% CO2 for 5 days. • (3) After 5 days of continuous culture for proliferation inhibition assay, the Cell-Titer reagent (Promega, G7572) prepared in advance was added to cell wells, the plate was left to stand at room temperature for 15-25 min in the dark, and then CRC and HNSCC cells were directly detected by a multimode microplate reader (Molecular Devices, Spectra MAXi3). • (4) NSCLC: Cell-Titer and the cell mixture were transferred to a 96-well white-bottom plate (NUNC, 136101) and detected by a multimode microplate reader (Molecular Devices, Spectra MAXi3).

H1703 = test: Proliferation inhibition experiment, H1703 (NSCLC); format: cell-based; conditions: H1703, EGFR Amplification, KRAS WT
Procedure: as §3

H1975 [3] = test: Proliferation inhibition experiment, H1975 (NSCLC); format: cell-based; conditions: EGFR L858R T790M, KRAS WT
Procedure: as §3

H1975 [4] = format: cell-based, human; conditions: EGFR L858R T790M, KRAS WT, huPBMC:target 50:1, 8 h, LDH
Procedure: (§4) • (1) A CTS medium (Gibco, A3021002) was preheated at 37° C. huPBMC (Miaotong Biotechnology, PB 100C-W) was quickly thawed in a water bath, and then the cells were added slowly to 8 mL of CTS medium (containing 1% DNase). • (2) The mixture was centrifuged at 300 g for 8 min. The supernatant was removed, and the cells were resuspended in 30 mL of CTS (containing 10 μL of DNase), transferred to a T75 flask, and incubated in an incubator at 37° C. overnight. • (3) The suspension cells cultured overnight were taken and centrifuged at 300 g for 8 min. The supernatant was removed, and the cell density was adjusted with CTS. According to an effector/target ratio of effector cells (huPBMCs) to target cells (tumor cells in Table 5) of 50:1, huPBMCs and the tumor cells prepared in advance (Target: huPBMC=1.5E4/7.5E5 cells/well/100 μL) were plated in a 96-well low-adsorption plate (Corning. CLS7007-24EA). • (4) The diluted antibody drug was added to the corresponding cell well plate and cultured at 37° C. with 5% CO2 for 8 h. • (5) The mixture was centrifuged at 300 g for 5 min. 50 μL of the supernatant was transferred to a 96-well transparent flat-bottom plate ((NUNC, 136101), 50 μL of the LDH reagent (Promega, G1780) prepared in advance was added to the corresponding well plate, and the plate was left to stand at room temperature for 15-30 min in the dark. • (6) 50 μL LDH stop solution (Promega, G1780) was taken and detected by a multimode microplate reader (Molecular Devices, Spectra MAXi3) at 490 nm for readings.

H322 = format: cell-based, human; conditions: EGFR WT, KRAS WT, huPBMC:target 50:1, 8 h, LDH
Procedure: as §4

H358 [5] = format: cell-based, human; conditions: EGFR WT, KRAS G12C, huPBMC:target 50:1, 8 h, LDH
Procedure: as §4

SK-MES-1 [6] = format: cell-based, human; conditions: EGFR Amplification, KRAS WT, huPBMC:target 50:1, 8 h, LDH
Procedure: as §4

H292 = format: cell-based, human; conditions: EGFR WT, KRAS WT, huPBMC:target 50:1, 8 h, LDH
Procedure: as §4

H1650 [7] = format: cell-based, human; conditions: EGFR Amplification Del19, KRAS WT, huPBMC:target 50:1, 8 h, LDH
Procedure: as §4

H1650 [8] = test: ADCC report assay, H1650; format: cell-based; conditions: EGFR Amplification Del19, KRAS WT, effector/target 10:1, 20 h
Procedure: as §1, §2

SK-MES-1 [9] = test: ADCC report assay, SK-MES-1; format: cell-based; conditions: EGFR Amplification, KRAS WT, effector/target 10:1, 20 h
Procedure: as §1, §2

| Substance | EC50 (H358 [1]) | Max inhibition (%) Mean ± SD (H1650 [2]) | IC50 (H1650 [2]; 3D culture, 5 days) | Max inhibition (%) Mean ± SD (H1703) | IC50 (H1703; 3D culture, 5 days) | Max inhibition (%) Mean ± SD (H1975 [3]) | IC50 (H1975 [3]; 3D culture, 5 days) | EC50 (H1975 [4]) | EC50 (H322) | EC50 (H358 [5]) | EC50 (SK-MES-1 [6]) | EC50 (H292) | EC50 (H1650 [7]) | EC50 (H1650 [8]) | EC50 (SK-MES-1 [9]) |
| --- | --- | --- | --- | --- | --- | --- | --- | --- | --- | --- | --- | --- | --- | --- | --- |
| amivantamab [JNJ372] | 0.018 nM | 31.0 ± 1.4% | 20.6 nM | 44.3 ± 3.4% | 0.7 nM | 47.9 ± 3.0% | 5.67 nM | 0.117 nM | 0.032 nM | 0.03 nM | 0.072 nM | 0.004 nM | 0.427 nM | 0.102 nM | 0.144 nM |
| zalutumumab [Zalu mAb] | 0.004 nM | 26.8 ± 2.6% |  | 45.6 ± 3.8% |  | 51.0 ± 2.3% |  | 0.118 nM | 0.014 nM | 0.007 nM | 0.014 nM | 0.001 nM | 0.571 nM | 0.021 nM | 0.011 nM |
